The text below walks through data of patent US10143668B2, “Hydroxy-substituted amino and ammonium derivatives and their medical use” (GRI BIO, INC., priority 2011, dated 2018).

Series [1] relates to RBL-2H3 cells. Briefly: Maximum tolerated concentration (cytotoxicity by lactate dehydrogenase release). It counts as cell-based, rat. From the text: The safety index (SI) of a test compound is the ratio between the maximum tolerated concentration and the IC50 and is used as a measure of the relative safety of the test compound.
Series [2] has as its system DTH response in mice. It counts as in vivo. The settings on record: for Inhibition of mouse ear swelling: 24 h after challenge. The method, then: The anti-inflammatory and anti-allergic effects of compound 1a was assessed in a mouse model of skin delayed-type hypersensitivity (DTH) reactions and compared to a vehicle control and to the reference drug, dexamethasone. DTH reactions are antigen-specific cell-mediated immune responses, driven primarily by T helper type 1 (Th1) cells, similar to the tuberculin immunization response. The immune reaction induced by an ovalbumin challenge to animals previously sensitized with ovalbumin in Complete Freund's Adjuvant, is characterized by swelling (edema) at the site of challenge, e.g. the mouse ear. Dexamethasone, an anti-inflammatory steroid, reduces cell-mediated immune responses and was employed to validate the responsiveness of the assay to pharmacological treatment.
Female BALB/cJW mice were bred at the University of Lodz, Lodz, Poland and housed in groups of 8 in makrolon cages with a 12 h light-dark cycle. Mice were given free access to food (Agropol S. j., Motycz, Poland) and water.
Sensitization: The protein antigen, ovalbumin, was reconstituted in PBS at 4 mg/ml. An ovalbumin-CFA emulsion was prepared by mixing the protein solution with the CFA suspension at a ratio of 1:1, using two Luer-lock syringes. The emulsion was tested by putting a drop of emulsion onto PBS; if the emulsion remained as a tight droplet on the PBS, the emulsion was deemed ready. Mice were sensitized by subcutaneously injecting 25 μL of emulsion into each side of the tail (100 μg ovalbumin per mouse).
Challenge: On the sixth day after sensitization, DTH was elicited by challenging animals subcutaneously (gauge 30 needle, B. Braun Melsungen, Melsungen, Germany) in the left ears with 10 μL of a 1% suspension of heat-aggregated ovalbumin (HOVA) (100 μg ovalbumin per mouse). The right ears were administered subcutaneously with PBS and served to determine the individual differences in ear thicknesses. HOVA was prepared by heating a 5% solution of ovalbumin in saline for 1 h at 80° C. with occasional swirling. After cooling to room temperature and centrifugation (400 g, 10 min at 4° C.), the pellet was washed twice with saline, resuspended at 2% in PBS and aliquots stored at −30° C. Before injection, HOVA was diluted with an equal volume of PBS and sonicated. Ear thickness was measured with a precise spring-loaded caliper (Art. No. 7309, Mitutoyo, Kawasaki, Japan) before challenge, and 24 h after challenge.
Sensitization, challenge and ear thickness measurement were performed under anesthesia (ketamine 80 mg/kg plus xylazine 8 mg/kg, intraperitoneally).
The anti-inflammatory effects of compound 1a were compared to a vehicle control (0.5% methyl cellulose solution) and to the reference drug, dexamethasone. Test compound was given at 25 or 100 mg/kg orally by gavage (Art. No. 432093, Harvard Apparatus GmbH, March-Hugstetten, Germany) 16 h and 3 h before sensitization and then twice daily with the final dose given 3 h prior to ear challenge (a total of 14 administrations). Dexamethasone was given at 0.1 or 1 mg/kg orally by gavage 3 h before sensitization and once daily with the final dose given 3 h prior to antigen challenge (a total of 7 administrations). All administrations were given in a volume of 10 mL/kg.
To account for individual variability, the increase in right ear thickness, before and 24 h after administration of PBS, was subtracted from the HOVA-induced increase in left ear thickness. […]
Mean and standard deviation (SD) were calculated from individual ear edema values. […]

Like-named read-outs stand apart in the source and are kept apart here.

As to `CCCCCCCCCCCCCC[N+](C)(C)CC(=O)N(C)C[C@H](O)[C@@H](O)[C@H](O)[C@H](O)CO` [Compound 1a, N-(2-(Dimethyl(tetradecyl)ammonio)acetyl)-N-methyl-D-glucamine chloride], in series [1] (highest concentration not causing cytotoxicity (LDH release)), the “MTC (maximum tolerated concentration)” value is 150 µM. Moreover, the “SI (safety index)” value in series [1] (ratio between MTC and IC50) is on record as 39.5. The “Inhibition of mouse ear swelling” value was 43% in series [2] (25 mg/kg orally twice daily) and 50% in series [2] (100 mg/kg orally twice daily). In addition, in series [2] (25 or 100 mg/kg orally twice daily vs dexamethasone 1 mg/kg), the “inhibition relative to that of the high dose of dexamethasone” value is “up to 94%”.
